Patent publication US12310936B2, “Pharmaceutical compositions for the treatment of cancer” (Seleq Oy, priority 2018, dated 2025)
Positions count from the first letter of the chain named. In names and notes the source's numbering stands.

B1: Y101H: mutant human kynurenine aminotransferase I, tyrosine to histidine substitution at position 101 (protein, listed as Homo sapiens)
chain: MAKQLQARRLDGIDYNPWVEFVKLASEHDVVNLGQGFPDFPPPDFAVEAFQHAVSGDFMLNQYTKTFGYPPLTKILASFFGELLGQEIDPLRNVLVTVGGHGALFTAFQALVDEGDEVIIIEPFFDCYEPMTMMAGGRPVFVSLKPGPIQNGELGSSSNWQLDPMELAGKFTSRTKALVLNTPNNPLGKVFSREELELVASLCQQHDVVCITDEVYQWMVYDGHQHISIASLPGMWERTLTIGSAGKTFSATGWKVGWVLGPDHIMKHLRTVHQNSVFHCPTQSQAAVAESFEREQLLFRQPSSYFVQFPQAMQRCRDHMIRSLQSVGLKPIIPQGSYFLITDISDFKRKMPDLPGAVDEPYDRRFVKWMIKNKGLVAIPVSIFYSVPHQKHFDHYIRFCFVKDEATLQAMDEKLRKWKVEL
B2: H279F: mutant human kynurenine aminotransferase I, histidine to phenylalanine substitution at position 279 (protein, listed as Homo sapiens)
chain: B1 chain with H101Y, H279F

Tests used:
HCC cells = assay: Modulation of SMC cytotoxicity by agents that favor beta-elimination; settings: more prominent together with overexpression of KYAT1
Native HCC cells = assay: HCC cell viability with SMC in the presence of alfaketoacid analogues, native HCC cells; format: cell-based; settings: IC50 of SMC in the presence of the labelled alfaketoacid analogue, relative to PPA treated HCC cells (=100)
Experimental: (§1) Normal hepatocytes and malignant hepatocytes (HCC) were incubated in the presence of various concentrations of SMC. After 72 h, the ATP content of lysed cells, which is proportional to the number of viable cells, was measured using a luminescence-based CellTiter Glo Kit (Promega) according to manufacturer's protocol using a FLx100 Luminometer (BioTek).

KYAT induced cells = assay: HCC cell viability with SMC in the presence of alfaketoacid analogues, KYAT induced cells; format: cell-based; settings: IC50 of SMC in the presence of the labelled alfaketoacid analogue, relative to untreated KYAT induced cells
Experimental: as §1

human KYAT1 = assay: Selenol production by mutated KYAT1 using SMC as a substrate; format: biochemical; settings: mutant versus wild type KYAT1
Description: The crystal structure of human KYAT1 has been determined for several complexes. The complex of KYAT1 with the cofactor PLP and the inhibitor L-Phe was used to create molecular models of Seleno-methyl Cystein (SMC) in complex with KYAT1 (FIG. 1). Our approach has been to identify residues that can be mutated in order to enhance beta-elimination of SMC, resulting in increased selenol production. This can be done by changing the substrate specificity of KYAT1 from kynurenine to SMC, or by changing kinetics of reprotonation of Calpha in the substrate. Several residues were mutated to check their potential involvement into the selenol formation.

Molecule	effect of the agent on the cytotoxicity of SMC (HCC cells)	SMC IC50 (percentage of control) (Native HCC cells)	selenol production by KYAT1 using SMC as a substrate (human KYAT1)	further results
Cc1ncc(COP(=O)(O)O)c(C=O)c1O [PLP, pyridoxal 5′-phosphate]	increase the cytotoxicity of SMC	–	–	–
O=C(O)C(=O)Cc1ccccc1 [PPA, phenyl pyruvic acid]	increase the cytotoxicity of SMC	100 percentage of control	–	–
COC(=O)CCC(=O)C(=O)OC [αKG, dimethyl-2-oxoglutarate]	increase the cytotoxicity of SMC	–	–	–
indole pyruvic acid [IPA]	–	38 percentage of control	–	SMC IC50 (percentage of control) (KYAT induced cells): 35 percentage of control
B1	–	–	higher selenol production	–
B2	–	–	higher selenol production	–
